{"source": "patent US20150258084A1", "about": "“STEM CELL COMPOSITIONS AND METHODS OF THEIR USE” (Banner Health, priority 2014, published 2015)", "assay_type_in_all_cases": "cell-based, rat", "key": {"cardiac stem cells [1]": {"test_system": "cardiac stem cells", "assay": "RNA expression analysis (real-time RT-PCR) of EMT and pluripotency markers after 7 days with TGF-β inhibitors", "experimental": "Total RNA was extracted from the cardiac stem cells using PureLink RNA Mini Kit (Life Technologies) according to the manufacturer's protocol. RNA was then quantified with a Quanti-iT RiboGreen RNA Assay Kit and assessed using a BioTek Synergy HT Microplate Reader (excitation/emission 480/520 nm). Total RNA (200 ng) was reverse-transcribed with a QuantiTect Reverse Transcription kit (Qiagen). Real-time RT-PCR was conducted using Rower SYBR Green Master Mix (Applied Biosystems) on a StepOnePlus Real-time PCR System (Applied Biosystems). Specific primers were synthesized by Life Technologies. CYPA was used as a reference gene. Data analysis was performed on StepOne software version 2.1 (Applied Biosystems) using the comparative Ct (AACt) quantitation method.\nTo determine the effect of inhibition of TGF-β signaling in cardiac stem cells on markers of epithelial/endothelial to mesenchymal transition (i.e., EMT markers) and pluripotency markers the following experiments were performed. Cardiac stem cells were isolated from sham and CHF heart tissue as described in Example 1 above. Cardiac stem cells from CHF and sham animals were treated in culture with TGF-β inhibitors SB431542 or SIS3 for 7 days and subsequently assessed for EMT and pluripotency expression by RNA expression analysis and western blotting using the techniques described above in Example 1."}, "cardiac stem cells [2]": {"test_system": "cardiac stem cells", "assay": "Differentiation potential: cardiac troponin T (TnT) immunocytochemistry", "settings": "7 days in cardiac differentiation medium with 2 μmol/L Mocetinostat", "experimental": "The effects of TGF-β inhibition on the differentiation potential of cardiac stem cells was examined as follows. Cardiac stem cells were isolated from heart tissue of CHF and sham animals as described in Example 1 above. Cells were subsequently cultured in cardiac differentiation medium (EMD Millipore) supplemented with 2 μmol/L Mocetinostat (SelleckChem) in the presence or absence of TGF-β inhibitors SB431542 and SIS3 for 7 days. Expression of cardiac troponin T (TnT) was evaluated by immunocytochemistry. TnT is an accepted marker for cardiac differentiation. Cells were fixed/permeabilized with a 1:1 acetone:ethanol mixture, blocked with 3% BSA in PBS, and labeled with mouse anti-TnT primary antibody (Abcam). Specific staining was visualized using anti-mouse secondary antibodies conjugated with Alexa 568 (Molecular Probes). Nuclei were stained with 4′,6-diamidino-2-phenylindole (Invitrogen). TnT-positive cells were quantified in 5 random microscopic fields. The percentage of TnT-positive cells was calculated as the number of positively stained cells normalized to the total number of cells."}, "[3]": {"test_system": "explant-derived cardiac stem cells", "assay": "Flow cytometry of explant outgrowths cultured 21 days with TGF-β inhibitors", "experimental": "Isolated cardiac stem cells were further characterized using flow cytometry as follows. Cells were fixed in 70% ethanol and labeled with the following antibodies: c-Kit (Santa-Cruz Biotechnology), vimentin and smooth muscle actin (Abcam), and CD90 (BD Biosciences). Cells were treated with secondary antibodies corresponding to either anti-rabbit or anti-mouse IgG conjugated with Alexa 488, phycoerythrin (PE), or PE-Cy5.5 (Life Technologies). Direct labeling with FITC-conjugated CD34 and PE-Cy5.5 conjugated CD45 (BD Biosciences) antibodies was used to exclude bone marrow and hematopoietic cells. Freshly isolated bone marrow cells were used as positive controls for CD34 and CD45 labeling. For a negative control, cells were labeled with isotype IgG instead of primary antibody. Cell events were detected using a FACS Calibur flow cytometer equipped with an argon laser (BD Biosciences). Data were analyzed using CellQuest software (BD Biosciences).\nThe effects of TGF-β inhibition on the yield of explant-derived cardiac stem cells were examined as follows. Cardiac stem cells were isolated from heart tissue of CHF and sham animals as described in Example 1 above. Cells were subsequently cultured in cardiac differentiation medium (EMD Millipore) supplemented with 2 μmol/L Mocetinostat (SelleckChem) in the presence or absence of TGF-β inhibitors SB431542 and SIS3 for 21 days. Explant outgrowths were analyzed by flow cytometry as described above in Example 1."}, "cardiac explants": {"test_system": "cardiac explants", "assay": "Morphology of explant cultures after 21 days with TGF-β inhibitors", "settings": "21 days in culture"}}}
{"smiles": "COc1cc2c(cc1OC)CN(C(=O)/C=C/c1c(-c3ccccc3)n(C)c3ncccc13)CC2", "note": "[SIS3]", "values": [{"measurement": "upregulated E-cadherin expression", "setting": "cardiac stem cells [1]; CHF cardiac stem cells", "value": "no effect"}, {"measurement": "upregulated Nanog expression", "setting": "cardiac stem cells [1]; CHF cardiac stem cells", "value": "no effect"}, {"measurement": "increased Sox2 expression", "setting": "cardiac stem cells [1]; sham cardiac stem cells", "value": 4, "unit": "fold"}, {"measurement": "reduced SMA gene expression", "setting": "cardiac stem cells [1]; sham cardiac stem cells", "value": 5, "unit": "fold"}, {"measurement": "upregulated E-cadherin expression", "setting": "cardiac stem cells [1]; sham cardiac stem cells", "value": 5, "unit": "fold"}, {"measurement": "upregulated Nanog expression", "setting": "cardiac stem cells [1]; sham cardiac stem cells", "value": 2.2, "unit": "fold"}, {"measurement": "TnT+ cells", "setting": "cardiac stem cells [2]; CHF cardiac stem cells", "value": 19.6, "unit": "%"}, {"measurement": "TnT+ cells", "setting": "cardiac stem cells [2]; sham cardiac stem cells", "value": 36.2, "unit": "%"}, {"measurement": "decreased percentage of vimentin-positive fibroblasts", "setting": "[3]; CHF CSCs", "value": 34, "unit": "%"}, {"measurement": "increase in the number of c-Kit+ cells", "setting": "[3]; CHF CSCs", "value": "no effect"}, {"measurement": "reduction of the number of CD90-positive cells", "setting": "[3]; CHF CSCs", "value": 53, "unit": "%"}, {"measurement": "reduction of the number of SMA-positive myofibroblasts", "setting": "[3]; CHF CSCs", "value": 62.8, "unit": "%"}, {"measurement": "decreased percentage of vimentin-positive fibroblasts", "setting": "[3]; sham CSCs", "value": 35, "unit": "%"}, {"measurement": "increase in the number of c-Kit+ cells", "setting": "[3]; sham CSCs", "value": 52, "unit": "%"}, {"measurement": "reduction of the number of CD90-positive cells", "setting": "[3]; sham CSCs", "value": 52.4, "unit": "%"}, {"measurement": "number of small, round phase-bright cell clusters compared with controls", "setting": "cardiac explants", "value": "higher number"}]}
{"smiles": "NC(=O)c1ccc(-c2nc(-c3ccc4c(c3)OCO4)c(-c3ccccn3)[nH]2)cc1", "note": "[SB431542]", "values": [{"measurement": "increased Sox2 expression", "setting": "cardiac stem cells [1]; CHF cardiac stem cells", "value": 4.1, "unit": "fold"}, {"measurement": "upregulated E-cadherin expression", "setting": "cardiac stem cells [1]; CHF cardiac stem cells", "value": 3.6, "unit": "fold"}, {"measurement": "upregulated Nanog expression", "setting": "cardiac stem cells [1]; CHF cardiac stem cells", "value": 2.4, "unit": "fold"}, {"measurement": "increased Sox2 expression", "setting": "cardiac stem cells [1]; sham cardiac stem cells", "value": 5.2, "unit": "fold"}, {"measurement": "reduced SMA gene expression", "setting": "cardiac stem cells [1]; sham cardiac stem cells", "value": 2, "unit": "fold"}, {"measurement": "upregulated E-cadherin expression", "setting": "cardiac stem cells [1]; sham cardiac stem cells", "value": 6.2, "unit": "fold"}, {"measurement": "upregulated Nanog expression", "setting": "cardiac stem cells [1]; sham cardiac stem cells", "value": 2, "unit": "fold"}, {"measurement": "TnT+ cells", "setting": "cardiac stem cells [2]; CHF cardiac stem cells", "value": 15.4, "unit": "%"}, {"measurement": "TnT+ cells", "setting": "cardiac stem cells [2]; sham cardiac stem cells", "value": 24.4, "unit": "%"}, {"measurement": "decreased percentage of vimentin-positive fibroblasts", "setting": "[3]; CHF CSCs", "value": 42, "unit": "%"}, {"measurement": "increase in the number of c-Kit+ cells", "setting": "[3]; CHF CSCs", "value": 75, "unit": "%"}, {"measurement": "reduction of the number of SMA-positive myofibroblasts", "setting": "[3]; CHF CSCs", "value": 63.3, "unit": "%"}, {"measurement": "decreased percentage of vimentin-positive fibroblasts", "setting": "[3]; sham CSCs", "value": 55, "unit": "%"}, {"measurement": "increase in the number of c-Kit+ cells", "setting": "[3]; sham CSCs", "value": 36.6, "unit": "%"}, {"measurement": "number of small, round phase-bright cell clusters compared with controls", "setting": "cardiac explants", "value": "higher number"}]}
